Laboratory results from patent US20240190821A1, “SULFONAMIDE SUBSTITUTED N-(1H-INDOL-7-YL)BENZENESULFONAMIDES AND USES THEREOF” (Triana Biomedicines, Inc., priority 2021, published 2024).
Like-named read-outs stand apart in the source and are kept apart here.

Key:
[1] = target: T1, DCAF15-RBM39 ternary complex (Homo sapiens, UniProt Q14498+Q66K64); assay: Compound-induced DCAF15-RBM39 ternary complex formation, AlphaLISA; type: biochemical
T1 construct: (RRM2)
Procedure: Compound-induced DCAF15-RBM39 ternary complex formation was monitored using AlphaLISA® assays (Perkin Elmer, Waltham, MA). […] 9.8 ul of this protein mixture was then mixed with the compounds in the assay plate and incubated for one hour at room temperature. Reaction mixtures with no compounds added were included as negative controls, while a His-tagged and biotinylated GST protein was included to track general assay performance. […] The beads were then added to the assay plate sequentially with incubation at room temperature for 1-2 hours after each addition.

DCAF15 = DCAF15 (Homo sapiens, UniProt Q66K64); assay: Binary interaction between compounds and DCAF15, HTRF competition assay; type: binding
Procedure: DCAF15 interactions with test compounds were monitored using HTRF competition assays (Cisbio, Bedford, MA). […] These two solutions were mixed and incubated for 15 min at room temperature. 9.8 ul of the tracer solution and 10 ul of the DCAF15/mAb Anti-6His-Eu cryptate Gold mixture were added sequentially to each well in the assay plate. Reaction mixtures with no DCAF15 added were included as […] controls. […] Binding was estimated based on ratiometric analysis and titration curves were generated in GraphPad Prism (7.00, GraphPad, La Jolla, CA).

[2] = AlphaLISA, His-tagged DCAF15 complex and biotin-carrying RBM39, read-out: Ternary-RBM39 (RRM2) EC50
[3] = HTRF competition with Alexa Fluor 647 tracer, His-tagged DCAF15 complex, read-out: DCAF15 IC50

T1 sequence (Q66K64 whole entry): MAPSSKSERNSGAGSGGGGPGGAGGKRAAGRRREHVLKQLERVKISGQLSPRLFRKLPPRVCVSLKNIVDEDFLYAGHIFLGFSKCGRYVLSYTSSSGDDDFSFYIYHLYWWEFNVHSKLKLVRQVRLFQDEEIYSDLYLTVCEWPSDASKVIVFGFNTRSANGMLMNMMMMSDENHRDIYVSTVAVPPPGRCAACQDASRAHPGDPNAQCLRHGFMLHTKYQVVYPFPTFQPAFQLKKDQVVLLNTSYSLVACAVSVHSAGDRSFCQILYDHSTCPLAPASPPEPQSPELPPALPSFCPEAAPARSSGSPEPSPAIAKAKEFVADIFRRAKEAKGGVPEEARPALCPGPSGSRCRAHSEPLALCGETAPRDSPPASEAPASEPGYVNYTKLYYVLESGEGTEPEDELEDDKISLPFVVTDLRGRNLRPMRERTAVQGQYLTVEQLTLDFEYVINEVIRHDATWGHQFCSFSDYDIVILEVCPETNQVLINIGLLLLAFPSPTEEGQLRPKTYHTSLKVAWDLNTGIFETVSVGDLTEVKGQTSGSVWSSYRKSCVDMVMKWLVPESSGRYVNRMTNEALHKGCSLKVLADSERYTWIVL
T1 sequence (Q14498 250-328 limits assumed): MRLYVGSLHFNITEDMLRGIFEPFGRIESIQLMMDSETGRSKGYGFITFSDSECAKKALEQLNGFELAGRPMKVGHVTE
T1 sequence (Q16531 whole entry partner): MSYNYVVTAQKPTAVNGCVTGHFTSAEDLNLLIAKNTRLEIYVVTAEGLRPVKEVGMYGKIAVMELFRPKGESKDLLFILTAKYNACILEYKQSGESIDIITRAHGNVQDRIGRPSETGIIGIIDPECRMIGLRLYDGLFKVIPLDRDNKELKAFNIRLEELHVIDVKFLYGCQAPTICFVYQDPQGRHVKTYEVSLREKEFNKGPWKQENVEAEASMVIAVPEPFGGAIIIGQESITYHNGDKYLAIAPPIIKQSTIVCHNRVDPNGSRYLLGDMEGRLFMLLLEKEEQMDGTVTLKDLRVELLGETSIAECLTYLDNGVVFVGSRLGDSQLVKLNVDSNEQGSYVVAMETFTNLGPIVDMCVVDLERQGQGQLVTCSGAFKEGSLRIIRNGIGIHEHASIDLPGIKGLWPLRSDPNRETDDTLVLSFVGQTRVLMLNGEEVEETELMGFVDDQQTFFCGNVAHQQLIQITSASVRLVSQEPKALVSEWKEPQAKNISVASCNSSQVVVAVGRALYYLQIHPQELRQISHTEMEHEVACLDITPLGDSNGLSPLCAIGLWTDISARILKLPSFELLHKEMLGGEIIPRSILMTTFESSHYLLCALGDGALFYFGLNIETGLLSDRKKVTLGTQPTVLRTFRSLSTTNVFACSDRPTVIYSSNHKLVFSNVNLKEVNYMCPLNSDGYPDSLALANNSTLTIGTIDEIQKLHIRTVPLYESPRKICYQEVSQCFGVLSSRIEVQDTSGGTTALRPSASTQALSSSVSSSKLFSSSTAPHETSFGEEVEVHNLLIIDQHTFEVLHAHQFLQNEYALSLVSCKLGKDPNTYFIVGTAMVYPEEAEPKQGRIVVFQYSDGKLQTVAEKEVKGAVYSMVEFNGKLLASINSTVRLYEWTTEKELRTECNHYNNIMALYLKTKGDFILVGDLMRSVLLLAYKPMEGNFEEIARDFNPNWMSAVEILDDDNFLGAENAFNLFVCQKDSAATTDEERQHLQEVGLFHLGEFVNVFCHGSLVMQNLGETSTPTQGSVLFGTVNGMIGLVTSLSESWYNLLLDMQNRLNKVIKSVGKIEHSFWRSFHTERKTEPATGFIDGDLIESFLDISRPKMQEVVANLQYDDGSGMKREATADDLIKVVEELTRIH
Chain of DCAF15 (Q66K64 whole entry): as the sequence (Q66K64 whole entry) above
Chain of DCAF15 (Q16531 whole entry partner): as the sequence (Q16531 whole entry partner) above

SMILES | EC50 [1, 2] | IC50 (DCAF15; [3]) | EC50 [1] | IC50 (DCAF15)
CN(C)C(=O)c1ccc(CCNS(=O)(=O)c2ccc(S(=O)(=O)Nc3ccc(Cl)c4c(Cl)c[nH]c34)cc2)cc1 [Compound 23, 4-(2-((4-(N-(3,4-dichloro-1H-indol-7-yl)sulfamoyl)pheny 1)sulfonamido)ethyl)-N,N-dimethylbenzamide] | < 5 µM | < 20 µM |  | 
Cc1ccc(NS(=O)(=O)c2ccc(S(=O)(=O)N3CCN(C4COC4)CC3)cc2)c2[nH]cc(C#N)c12 [Compound 86, N-(3-cyano-4-methyl-1H-indol-7-yl)-4-((4-(oxetan-3-yl)piperazin-1-yl)sulfonyl)benzenesulfonamide] | < 1 µM | < 20 µM |  | 
CCN=S(=O)(c1ccc(S(=O)(=O)Nc2ccc(Cl)c3c(Cl)c[nH]c23)cc1)N1CCNCC1 (stereo not drawn) [Compound 69, N-(3,4-dichloro-1H-indol-7-yl)-4-(N-ethylpiperazine-1-sulfonimidoyl)benzenesulfonamide] | < 1 µM | < 100 µM |  | 
CC(C)(C)OC(=O)N1CCC2(CC1)CN(S(=O)(=O)c1ccc(S(=O)(=O)Nc3ccc(Cl)c4c(Cl)c[nH]c34)cc1)CCO2 [Compound 55, tert-butyl 4-((4-(N-(3,4-dichloro-1H-indol-7-yl)sulfamoyl)phenyl)sulfonyl)-1-oxa-4,9-diazaspiro[5.5] undecane-9-carboxylate] | < 5 µM | < 20 µM |  | 
N#Cc1cccc(S(=O)(=O)Nc2ccc(I)c3c(Cl)c[nH]c23)c1 [Compound 102, N-(3-chloro-4-iodo-1H-indol-7-yl)-3-cyanobenzenesulfonamide] | < 5 µM | < 100 µM |  | 
O=S(=O)(Nc1ccc(Cl)c2c(Cl)c[nH]c12)c1ccc(S(=O)(=O)C2CCNCC2)cc1 [Compound 57, N-(3,4-dichloro-1H-indol-7-yl)-4-(piperidin-4-ylsulfonyl)benzene sulfonamide] | < 1 µM | < 5 µM |  | 
Cc1ccc(NS(=O)(=O)c2ccc(S(=O)(=O)N3C[C@H]4C[C@@H](C3)N4)cc2)c2[nH]cc(C#N)c12 [Compound 94, 4-(((1R,5S)-3,6-diazabicyclo[3.1.1]heptan-3-yl)sulfonyl)-N-(3-cyano-4-methyl-1H-indol-7-yl)benzenesulfonamide] | < 1 µM | < 20 µM |  | 
COCCOCCCNS(=O)(=O)c1ccc(S(=O)(=O)Nc2ccc(Cl)c3c(Cl)c[nH]c23)cc1 [Compound 7, N^1-(3,4-dichloro-1H-indol-7-yl)-N^4-(3-(2-methoxyethoxy)propyl)benzene-1,4-disulfonamide] | < 5 µM | < 20 µM |  | 
CCC(NS(=O)(=O)c1ccc(S(=O)(=O)Nc2ccc(Cl)c3c(Cl)c[nH]c23)cc1)c1ccc2c(c1)OCCO2 (stereo not drawn) [Compound 14, N1-(3,4-dichloro-1H-indol-7-yl)-N^4-(1-(2,3-dihydrobenzo[b][1, 4]dioxin-6-yl)propyl)benzene-1,4-disulfonamide] | < 20 µM | < 20 µM |  | 
CCCN(c1ccc(S(=O)(=O)Nc2ccc(Cl)c3c(Cl)c[nH]c23)cc1)S(=O)(=O)C1CCNCC1 [Compound 63, N-(4-(N-(3,4-dichloro-1H-indol-7-yl)sulfamoyl)phenyl)-N-propylpiperidine-4-sulfonamide] | < 1 µM | < 5 µM |  | 
CCCN(C(C)=O)c1ccc(S(=O)(=O)Nc2ccc(Cl)c3c(Cl)c[nH]c23)cc1 [Compound 71, N-(4-(N-(3,4-dichloro-1H-indol-7-yl)sulfamoyl)phenyl)-N-propylacetamide] | < 1 µM | < 5 µM |  | 
O=S(=O)(Nc1ccc(Cl)c2cc[nH]c12)c1ccc(S(=O)(=O)N2CCNCC2)cc1 [Compound 87, N-(4-chloro-1H-indol-7-yl)-4-(piperazin-1-ylsulfonyl)benzenesulfonamide] | < 5 µM | < 20 µM |  | 
O=S(=O)(Nc1ccc(Cl)c2c(Cl)c[nH]c12)c1ccc(C2(N3CCNCC3)COC2)cc1 [Compound 60, N-(3,4-dichloro-1H-indol-7-yl)-4-(3-(piperazin-1-yl)oxetan-3-yl)benzenesulfonamide] | < 1 µM | < 5 µM |  | 
Cc1ccnc(C(NS(=O)(=O)c2ccc(S(=O)(=O)Nc3ccc(Cl)c4c(Cl)c[nH]c34)cc2)C2CC2)c1 (stereo not drawn) [Compound 18, N^1-(cyclopropyl(4-methylpyridin-2-yl)methyl)-N^4-(3,4-dichloro-1H-indol-7-yl)benzene-1,4-disulfonamide] | < 5 µM | < 20 µM |  | 
O=S(=O)(Nc1ccc(Cl)c2c(Cl)c[nH]c12)c1ccc(S(=O)(=O)N2CCC(n3ccnn3)C2)cc1 (stereo not drawn) [Compound 36, 4-((3-(1H-1,2,3-triazol-1-yl)pyrrolidin-1-yl)sulfonyl)-N-(3,4-dichloro-1H-indol-7-yl)benzenesulfonamide] | < 5 µM | < 5 µM |  | 
O=S(=O)(F)c1ccc(S(=O)(=O)Nc2ccc(Cl)c3c(Cl)c[nH]c23)cc1 [Compound 72, 4-(N-(3,4-dichloro-1H-indol-7-yl)sulfamoyl)benzenesulfonyl fluoride] |  |  | < 1 µM | < 20 µM
O=S(=O)(Nc1ccc(Cl)c2c(Cl)c[nH]c12)c1ccc(S(=O)(=O)N2CCCNCC2)cc1 [Compound 52, 4-((1,4-diazepan-1-yl)sulfonyl)-N-(3,4-dichloro-1H-indol-7-yl)benzene sulfonamide] | < 1 µM | < 5 µM |  | 
Cc1ccc(NS(=O)(=O)c2ccc(S(=O)(=O)N(C)C3CCNCC3)cc2)c2[nH]cc(C#N)c12 [Compound 78, N^1-(3-cyano-4-methyl-1H-indol-7-yl)-N^4-methyl-N^4-(piperidin-4-yl) benzene-1,4-disulfonamide] | < 1 µM | < 5 µM |  | 
O=C1NCCCCC1NS(=O)(=O)c1ccc(S(=O)(=O)Nc2ccc(Cl)c3c(Cl)c[nH]c23)cc1 (stereo not drawn) [Compound 33, N^1-(3,4-dichloro-1H-indol-7-yl)-N^4-(2-oxoazepan-3-yl)benzene-1,4-disulfonamide] | < 1 µM | < 5 µM |  | 
CN1CCC(S(=O)(=O)Nc2ccc(S(=O)(=O)Nc3ccc(Cl)c4c(Cl)c[nH]c34)cc2)CC1 [Compound 64, N-(4-(N-(3,4-dichloro-1H-indol-7-yl)sulfamoyl)phenyl)-1-methylpiperidine-4-sulfonamide] | < 5 µM | < 100 µM |  | 
O=S(=O)(NCC1CCN(CCCc2ccccc2)CC1)c1ccc(S(=O)(=O)Nc2ccc(Cl)c3c(Cl)c[nH]c23)cc1 [Compound 10, N^1-(3,4-dichloro-1H-indol-7-yl)-N^4-((1-(3-phenylpropyl)piperidin-4-yl)methyl)benzene-1,4-disulfonamide] | < 1 µM | < 5 µM |  | 
CN1CCC(S(=O)(=O)c2ccc(S(=O)(=O)Nc3ccc(Cl)c4c(Cl)c[nH]c34)cc2)CC1 [Compound 58, N-(3,4-dichloro-1H-indol-7-yl)-4-((1-methylpiperidin-4-yl)sulfonyl)benzene sulfonamide] | < 1 µM | < 5 µM |  | 
CCc1nc(CN(C)S(=O)(=O)c2ccc(S(=O)(=O)Nc3ccc(Cl)c4c(Cl)c[nH]c34)cc2)no1 [Compound 20, N^1-(3,4-dichloro-1H-indol-7-yl)-N^4-((5-ethyl-1,2,4-oxadiazol-3-yl)methyl)-N4. methylbenzene-1,4-disulfonamide] | < 5 µM | < 5 µM |  | 
O=S(=O)(Nc1ccc(Cl)c2c(Cl)c[nH]c12)c1cccc(Br)c1 [Compound 76, 3-bromo-N-(3,4-dichloro-1H-indol-7-yl)benzenesulfonamide] | < 5 µM | < 20 µM |  | 
O=C1CCC(NS(=O)(=O)c2ccc(S(=O)(=O)Nc3ccc(Cl)c4c(Cl)c[nH]c34)cc2)CN1 (stereo not drawn) [Compound 31, N^1-(3,4-dichloro-1H-indol-7-yl)-N^4-(6-oxopiperidin-3-yl)benzene-1,4-disulfonamide] | < 1 µM | < 5 µM |  | 
Cc1ccc(NS(=O)(=O)c2ccc(S(=O)(=O)N3CC4CNCC4C3)cc2)c2[nH]cc(C#N)c12 (stereo not drawn) [Compound 92, N-(3-cyano-4-methyl-1H-indol-7-yl)-4-((hexahydropyrrolo[3,4-c]pyrrol-2(1H)-yl)sulfonyl)benzenesulfonamide] | < 1 µM | < 20 µM |  | 
O=C(CCCNS(=O)(=O)c1ccc(S(=O)(=O)Nc2ccc(Cl)c3c(Cl)c[nH]c23)cc1)N1CCCC1 [Compound 27, N^1-(3,4-dichloro-1H-indol-7-yl)-N^4-(4-oxo-4-(pyrrolidin-1-yl)butyl)benzene-1,4-disulfonamide] | < 1 µM | < 5 µM |  | 
CN1CC(CCNS(=O)(=O)c2ccc(S(=O)(=O)Nc3ccc(Cl)c4c(Cl)c[nH]c34)cc2)C1 [Compound 22, N^1-(3,4-dichloro-1H-indol-7-y1)-N^4-(2-(1-methylazetidin-3-yl)ethyl)benzene-1,4-disulfonamide] | < 1 µM | < 5 µM |  | 
O=S(=O)(Nc1ccc(Cl)c2c(Cl)c[nH]c12)c1ccc(S(=O)(=O)N2CCC(Oc3cccnc3)CC2)cc1 [Compound 39, N-(3,4-dichloro-1H-indol-7-yl)-4-((4-(pyridin-3-yloxy)piperidin-1-yl)sulfonyl)benzene sulfonamide] | < 5 µM | < 20 µM |  | 
CN(C)C(=O)CC(NS(=O)(=O)c1ccc(S(=O)(=O)Nc2ccc(Cl)c3c(Cl)c[nH]c23)cc1)c1ccccc1 (stereo not drawn) [Compound 11, 3-((4-(N-(3,4-dichloro-1H-indol-7-yl)sulfamoyl)phenyl)sulfonamido)-N,N-dimethyl-3-phenylpropanamide] | < 20 µM | < 5 µM |  | 
